According to patent US20250122203A1, “ADENOSINE RECEPTOR ANTAGONISTS” (Crossignal Therapeutics, Inc., priority 2021, published 2025):

Columns and labels:
[1] = target: T1, human adenosine A2b receptor (Homo sapiens, UniProt P29275); assay: Adenosine A2b Receptor Whole Cell Cyclic AMP Assay; conditions: HEK293 cells transfected with human A2b; in the presence of 10 μM adenosine
T1 sequence (P29275 1-332): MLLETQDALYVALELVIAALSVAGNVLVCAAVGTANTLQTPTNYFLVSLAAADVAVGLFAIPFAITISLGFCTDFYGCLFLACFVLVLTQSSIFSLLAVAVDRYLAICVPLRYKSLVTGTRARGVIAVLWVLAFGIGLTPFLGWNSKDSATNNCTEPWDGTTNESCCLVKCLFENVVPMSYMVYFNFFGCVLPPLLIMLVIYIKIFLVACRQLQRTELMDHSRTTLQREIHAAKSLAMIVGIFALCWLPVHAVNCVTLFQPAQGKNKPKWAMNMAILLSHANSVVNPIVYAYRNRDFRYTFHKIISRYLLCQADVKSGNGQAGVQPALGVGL

[2] = target: human adenosine A2a receptor (Homo sapiens, UniProt P29274); assay: Adenosine A2a Receptor Whole Cell Cyclic AMP Assay; conditions: HEK293 cells stably expressing human A2a; for A2a @ 1 μM Adenosine (cAMP IC50): in the presence of 1 μM adenosine; for A2a @ 100 μM Adenosine (cAMP IC50): in the presence of 100 μM adenosine
Chain of human adenosine A2a receptor (P29274 whole entry): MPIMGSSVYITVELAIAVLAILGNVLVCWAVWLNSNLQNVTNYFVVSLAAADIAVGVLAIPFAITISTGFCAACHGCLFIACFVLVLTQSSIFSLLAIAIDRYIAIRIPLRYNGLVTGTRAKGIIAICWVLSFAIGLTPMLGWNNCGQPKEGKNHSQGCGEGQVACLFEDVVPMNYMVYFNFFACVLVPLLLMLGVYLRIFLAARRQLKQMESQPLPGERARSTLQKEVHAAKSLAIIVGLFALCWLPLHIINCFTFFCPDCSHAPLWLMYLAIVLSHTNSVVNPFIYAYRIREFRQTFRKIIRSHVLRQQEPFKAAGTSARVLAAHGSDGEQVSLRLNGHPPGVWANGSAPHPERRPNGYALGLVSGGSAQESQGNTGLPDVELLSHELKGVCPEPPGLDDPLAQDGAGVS

Row | Structure (SMILES) | A2a @ 1 μM Adenosine (cAMP IC50) [2] | A2a @ 100 μM Adenosine (cAMP IC50) [2] | other results
1 | Cc1cc(-c2c(-c3ccc(F)cc3)nc(N)n3nnnc23)cc(C)n1 [1-28, 8-(2,6-dimethylpyridin-4-yl)-7-(4-fluorophenyl)tetrazolo[1,5-c]pyrimidin-5-amine] |  |  | A2b @ 10 μM Adenosine (cAMP IC50) [1]: + (partial)
2 | Nc1nc(-c2ccc(F)cc2)c(-c2ccc3ncoc3c2)n2nnnc12 [1-10, 5-(benzo[d]oxazol-6-yl)-6-(4-fluorophenyl)tetrazolo[1,5-a]pyrazin-8-amine] |  | + (partial) | 
3 | Cc1ccnc2ccc(-c3c(-c4ccc(F)cc4)nc(N)c4nnnn34)cc12 [1-6, 6-(4-fluorophenyl)-5-(4-methylquinolin-6-yl)tetrazolo[1,5-a]pyrazin-8-amine] |  | ++ (partial) | 
4 | Nc1nc(-c2ccc(F)cc2)c(-c2ccc3ncc(Cl)n3c2)n2nnnc12 [1-23, 5-(3-chloroimidazo[1,2-a]pyridin-6-yl)-6-(4-fluorophenyl)tetrazolo[1,5-a]pyrazin-8-amine] |  | ++ (partial) | 

More lines, main results first:

Row | A2a @ 1 μM Adenosine (cAMP IC50) [2] | A2a @ 100 μM Adenosine (cAMP IC50) [2] | Structure (SMILES) | other results
5 | +++ (partial) |  | Cc1ccnc2ccc(-c3c(-c4cccc(Cl)c4)nc(N)c4nnnn34)cc12 [1-50, 6-(3-chlorophenyl)-5-(4-methylquinolin-6-yl)tetrazolo[1,5-a]pyrazin-8-amine] | 
6 | +++ (partial) |  | Cc1ccnc2ccc(-c3c(-c4ccc(Cl)cc4)nc(N)c4nnnn34)cc12 [1-39, 6-(4-chlorophenyl)-5-(4-methylquinolin-6-yl)tetrazolo[1,5-a]pyrazin-8-amine] | 
7 | +++ (partial) |  | Cc1ccnc2ccc(-c3c(-c4ccc(C(=O)N(C)C)cc4)nc(N)c4nnnn34)cc12 [1-40, 4-(8-amino-5-(4-methylquinolin-6-yl)tetrazolo[1,5-a]pyrazin-6-yl)-N,N-dimethylbenzamide] | 
